The assay addresses Maltase-glucoamylase (Homo sapiens, UniProt O43451). In words: Inhibition of alpha-glucosidase (unknown origin).

Each structure is given as a SMILES string.

Sequence of Maltase-glucoamylase (O43451 whole entry): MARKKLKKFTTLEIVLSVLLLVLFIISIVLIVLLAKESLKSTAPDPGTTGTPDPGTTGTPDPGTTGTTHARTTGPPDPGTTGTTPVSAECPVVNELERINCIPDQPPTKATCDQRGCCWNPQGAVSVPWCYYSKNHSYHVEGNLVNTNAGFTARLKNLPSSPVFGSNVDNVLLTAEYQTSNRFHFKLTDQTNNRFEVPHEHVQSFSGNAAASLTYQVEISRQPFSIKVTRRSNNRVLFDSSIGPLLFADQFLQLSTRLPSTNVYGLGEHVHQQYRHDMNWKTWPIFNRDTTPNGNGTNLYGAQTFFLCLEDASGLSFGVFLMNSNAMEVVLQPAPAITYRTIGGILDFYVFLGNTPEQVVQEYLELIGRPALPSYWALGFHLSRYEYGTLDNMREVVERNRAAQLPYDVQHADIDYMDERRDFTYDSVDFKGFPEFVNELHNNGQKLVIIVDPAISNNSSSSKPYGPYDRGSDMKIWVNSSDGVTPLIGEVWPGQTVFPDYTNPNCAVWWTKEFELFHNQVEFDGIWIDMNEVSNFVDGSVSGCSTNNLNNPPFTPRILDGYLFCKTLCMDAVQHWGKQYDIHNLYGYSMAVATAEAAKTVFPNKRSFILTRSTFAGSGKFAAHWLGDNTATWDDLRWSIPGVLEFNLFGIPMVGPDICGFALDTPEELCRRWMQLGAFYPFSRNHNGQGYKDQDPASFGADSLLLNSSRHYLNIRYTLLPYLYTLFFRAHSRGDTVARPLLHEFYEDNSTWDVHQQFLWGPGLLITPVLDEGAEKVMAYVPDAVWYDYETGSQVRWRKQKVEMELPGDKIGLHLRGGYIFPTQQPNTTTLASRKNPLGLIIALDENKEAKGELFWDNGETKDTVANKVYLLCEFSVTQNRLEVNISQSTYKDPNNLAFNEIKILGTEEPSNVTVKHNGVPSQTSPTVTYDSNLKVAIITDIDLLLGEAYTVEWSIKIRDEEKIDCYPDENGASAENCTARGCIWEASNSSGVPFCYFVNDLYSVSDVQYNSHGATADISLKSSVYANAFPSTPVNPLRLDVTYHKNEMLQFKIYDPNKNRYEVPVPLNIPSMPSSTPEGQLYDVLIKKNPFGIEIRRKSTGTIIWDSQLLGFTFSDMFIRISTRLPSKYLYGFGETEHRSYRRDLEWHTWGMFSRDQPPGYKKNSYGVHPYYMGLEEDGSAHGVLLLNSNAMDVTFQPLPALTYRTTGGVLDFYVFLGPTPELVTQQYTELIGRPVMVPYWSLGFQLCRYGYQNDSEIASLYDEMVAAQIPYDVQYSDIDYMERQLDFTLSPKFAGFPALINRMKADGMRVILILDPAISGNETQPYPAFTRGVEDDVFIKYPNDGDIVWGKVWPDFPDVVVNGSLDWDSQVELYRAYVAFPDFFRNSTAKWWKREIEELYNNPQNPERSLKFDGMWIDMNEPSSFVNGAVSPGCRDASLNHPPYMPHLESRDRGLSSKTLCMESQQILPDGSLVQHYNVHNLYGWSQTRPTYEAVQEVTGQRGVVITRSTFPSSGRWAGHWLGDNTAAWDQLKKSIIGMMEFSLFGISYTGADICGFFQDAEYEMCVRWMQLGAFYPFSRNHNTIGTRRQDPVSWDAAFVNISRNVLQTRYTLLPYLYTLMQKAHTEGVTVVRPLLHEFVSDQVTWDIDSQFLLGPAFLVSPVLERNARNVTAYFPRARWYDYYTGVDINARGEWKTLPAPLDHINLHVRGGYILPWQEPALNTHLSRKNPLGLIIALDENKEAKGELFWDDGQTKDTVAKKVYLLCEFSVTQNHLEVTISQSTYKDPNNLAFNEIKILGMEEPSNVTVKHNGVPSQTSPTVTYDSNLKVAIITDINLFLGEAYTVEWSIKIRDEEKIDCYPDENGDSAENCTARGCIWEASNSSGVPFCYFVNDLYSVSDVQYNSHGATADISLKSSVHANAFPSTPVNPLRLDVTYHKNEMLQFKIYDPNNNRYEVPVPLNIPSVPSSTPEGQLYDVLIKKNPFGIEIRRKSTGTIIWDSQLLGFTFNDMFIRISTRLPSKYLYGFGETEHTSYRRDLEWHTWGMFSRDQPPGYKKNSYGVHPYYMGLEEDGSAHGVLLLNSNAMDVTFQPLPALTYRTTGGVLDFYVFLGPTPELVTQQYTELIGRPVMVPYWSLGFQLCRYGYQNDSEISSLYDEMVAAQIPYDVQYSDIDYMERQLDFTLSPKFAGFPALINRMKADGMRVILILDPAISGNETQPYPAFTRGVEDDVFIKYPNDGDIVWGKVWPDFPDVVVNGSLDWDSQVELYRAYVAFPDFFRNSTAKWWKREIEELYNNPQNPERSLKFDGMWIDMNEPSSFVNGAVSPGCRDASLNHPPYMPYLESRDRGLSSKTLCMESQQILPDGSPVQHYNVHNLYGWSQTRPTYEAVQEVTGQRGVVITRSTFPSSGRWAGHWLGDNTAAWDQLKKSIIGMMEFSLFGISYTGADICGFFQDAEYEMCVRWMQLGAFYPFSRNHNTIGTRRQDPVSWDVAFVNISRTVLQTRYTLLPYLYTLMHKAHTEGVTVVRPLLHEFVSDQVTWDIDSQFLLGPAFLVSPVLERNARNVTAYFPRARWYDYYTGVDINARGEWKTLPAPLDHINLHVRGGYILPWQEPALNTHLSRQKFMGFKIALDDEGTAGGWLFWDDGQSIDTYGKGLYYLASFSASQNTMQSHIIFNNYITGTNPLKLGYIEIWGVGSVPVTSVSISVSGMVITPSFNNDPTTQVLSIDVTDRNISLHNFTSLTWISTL

In turn, `COc1ccc(CNC(=O)c2c(NC(=O)c3cccnc3)sc3c2CCC3)cc1` displayed an IC50 of 87.6 µM.

On to `O=C(Nc1sc2c(c1C(=O)NCc1ccccc1)CCC2)c1cccnc1`, for which it took 82.5 µM to reach half-maximal inhibition (IC50).

`COc1cc(CNC(=O)c2c(NC(=O)c3cccnc3)sc3c2CCC3)ccc1O` showed an IC50 of 93.6 µM.

In turn, `COc1ccc(CNC(=O)c2c(NC(=O)c3cccnc3)sc3c2CCCC3)cc1` returned an IC50 of 30.2 µM.

Turning to `O=C(Nc1sc2c(c1C(=O)NCc1ccccc1)CCCC2)c1cccnc1`, 45.3 µM corresponded to half-maximal inhibition (IC50).

Compound `O=C(Nc1sc2c(c1C(=O)NCc1ccccn1)CCCC2)c1cccnc1` showed an IC50 of 64.1 µM.

The compound `O=C(Nc1sc2c(c1C(=O)NCc1cccnc1)CCCC2)c1cccnc1` came in with an IC50 of 507 µM.

As to `COc1cc(CNC(=O)c2c(NC(=O)c3cccnc3)sc3c2CCCC3)ccc1O`, it took 9.9 µM to reach half-maximal inhibition (IC50).

For `COC(=O)c1ccc(CNC(=O)c2c(NC(=O)c3cccnc3)sc3c2CCCC3)cc1`, the half-maximal inhibitory concentration (IC50) stood at 87.8 µM.

As for `O=C(Nc1sc2c(c1C(=O)NCc1ccccc1)CCCCC2)c1cccnc1`, the IC50 amounted to 63.4 µM.

With `COc1cc(CNC(=O)c2c(NC(=O)c3cccnc3)sc3c2CCCCC3)ccc1O`, inhibition was half-maximal at 35.4 µM (IC50).

These data come from BindingDB's records for PubMed 36395995 (University of Jinan, 2023).
